Test system: 8XTBD luciferase reporter (YAP reporter) in HEK293T cells
Assay: YAP Reporter Assay
Type: cell-based
Conditions: Homo sapiens, HEK-293T; HEK293T cells stably transfected with 8XTBD luciferase reporter and pRLTK; 24-hr incubation; top concentration 3 μM; read-out: Firefly Luciferase IC50
Method in brief: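 HEK293T cells stably carrying 8XTBD firefly luciferase and TK-renilla (3×10^3 cells/well) dosed 3-4 h after plating with compounds from 3 μM final, 1:3 dilution, 10 points, quadruplicates. After 24 h at 37° C, Dual-Glo readings gave IC50 and maximum inhibition reported separately for firefly and renilla.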

| Structure (SMILES) | IC50 [nM] |
| --- | --- |
| C[C@H](NC(=O)c1ccc2c(-c3ccc(C(F)(F)F)cc3)cccc2c1)C1CCC1 [Compound 251, (S)—N-(1-cyclobutylethyl)-5-(4-(trifluoromethyl)phenyl)-2-naphthamide] | 100 to 1000 |
| C[C@@H](NC(=O)c1ccc2c(-c3ccc(C(F)(F)F)cc3)cccc2c1)C1CCC1 [Compound 252, (R)—N-(1-cyclobutylethyl)-5-(4-(trifluoromethyl)phenyl)-2-naphthamide] | 100 to 1000 |
| C[C@H](NC(=O)c1ccc2c(-c3ccc(C(F)(F)F)cc3)cccc2c1)c1nccn1C [Compound 253, (S)—N-(1-(1-methyl-1H-imidazol-2-yl)ethyl)-5-(4-(trifluoromethyl)phenyl)-2-naphthamide] | 1000 to 3000 |
| C[C@@H](NC(=O)c1ccc2c(-c3ccc(C(F)(F)F)cc3)cccc2c1)c1nccn1C [Compound 254, (R)—N-(1-(1-methyl-1H-imidazol-2-yl)ethyl)-5-(4-(trifluoromethyl)phenyl)-2-naphthamide] | 100 to 1000 |
| O=C(NCCCCO)c1ccc2c(-c3ccc(C(F)(F)F)cc3)cccc2c1 [Compound 255, N-(4-hydroxybutyl)-5-(4-(trifluoromethyl)phenyl)-2-naphthamide] | 100 to 1000 |
| [N-]=[N+]=NCCCNC(=O)c1ccc2c(-c3ccc(C(F)(F)F)cc3)cccc2c1 [Compound 256, N-(3-azidopropyl)-5-(4-(trifluoromethyl)phenyl)-2-naphthamide] | 100 to 1000 |
| O=C(NC1(CO)CC1)c1ccc2c(-c3ccc(C(F)(F)F)cc3)cccc2c1 [Compound 257, N-(1-(hydroxymethyl)cyclopropyl)-5-(4-(trifluoromethyl)phenyl)-2-naphthamide] | < 100 |
| C[C@@H](NC(=O)c1ccc2c(-c3ccc(C(F)(F)F)cc3)cccc2c1)C(N)=O [Compound 258, (R)—N-(1-amino-1-oxopropan-2-yl)-5-(4-(trifluoromethyl)phenyl)-2-naphthamide] | 100 to 1000 |
| C[C@H](NC(=O)c1ccc2c(-c3ccc(C(F)(F)F)cc3)cccc2c1)C(N)=O [Compound 259, (S)—N-(1-amino-1-oxopropan-2-yl)-5-(4-(trifluoromethyl)phenyl)-2-naphthamide] | 100 to 1000 |
| O=C(NC(CO)c1ccccn1)c1cnc2c(-c3ccc(C(F)(F)F)cc3)cccc2c1 (stereo not drawn) [Compound 260, N-[2-hydroxy-1-(2-pyridyl)ethyl]-8-[4-(trifluoromethyl)phenyl]quinoline-3-carboxamide] | < 100 |
| [N-]=[N+]=NCCNC(=O)c1ccc2c(-c3ccc(C(F)(F)F)cc3)cccc2c1 [Compound 261, N-(2-azidoethyl)-5-(4-(trifluoromethyl)phenyl)-2-naphthamide] | < 100 |
| CC(C)(NC(=O)c1ccc2c(-c3ccc(C(F)(F)F)cc3)cccc2c1)c1ccccn1 [Compound 262, N-(2-(pyridin-2-yl)propan-2-yl)-5-(4-(trifluoromethyl)phenyl)-2-naphthamide] | 100 to 1000 |
| CC(C)(CO)NC(=O)c1ccc2c(-c3ccc(C(F)(F)F)cc3)cccc2c1 [Compound 263, N-(1-hydroxy-2-methylpropan-2-yl)-5-(4-(trifluoromethyl)phenyl)-2-naphthamide] | 100 to 1000 |
| CC(C)(C)NC(=O)c1ccc2c(-c3ccc(C(F)(F)F)cc3)cccc2c1 [Compound 264, N-(tert-butyl)-5-(4-(trifluoromethyl)phenyl)-2-naphthamide] | 100 to 1000 |
| O=C(NCCCCl)c1ccc2c(-c3ccc(C(F)(F)F)cc3)cccc2c1 [Compound 265, N-(3-chloropropyl)-5-(4-(trifluoromethyl)phenyl)-2-naphthamide] | 100 to 1000 |
| C[C@H](NC(=O)c1cnc2c(-c3ccc(C(F)(F)F)cc3)cccc2n1)c1ccccn1 [Compound 266, (S)—N-(1-(pyridin-2-yl)ethyl)-5-(4-(trifluoromethyl)phenyl)quinoxaline-2-carboxamide] | 100 to 1000 |
| C[C@H](CO)NC(=O)c1cnc2c(-c3ccc(C(F)(F)F)cc3)cccc2n1 [Compound 267, (R)—N-(1-hydroxypropan-2-yl)-5-(4-(trifluoromethyl)phenyl)quinoxaline-2-carboxamide] | 100 to 1000 |
| CC(C)NC(=O)c1cnc2c(-c3ccc(C(F)(F)F)cc3)cccc2n1 [Compound 268, N-Isopropyl-5-(4-(trifluoromethyl)phenyl)quinoxaline-2-carboxamide] | 100 to 1000 |
| C[C@H](NC(=O)c1ccc2c(-c3ccc(C(F)(F)F)cc3)cccc2c1)C1COC1 [Compound 269, (S)—N-(1-(oxetan-3-yl)ethyl)-5-(4-(trifluoromethyl)phenyl)-2-naphthamide] | < 100 |
| C[C@@H](NC(=O)c1ccc2c(-c3ccc(C(F)(F)F)cc3)cccc2c1)C1COC1 [Compound 270, (R)—N-(1-(oxetan-3-yl)ethyl)-5-(4-(trifluoromethyl)phenyl)-2-naphthamide] | 100 to 1000 |

| Structure (SMILES) | IC50 [nM] |
| --- | --- |
| CC#C[C@H](C)NC(=O)c1ccc2c(-c3ccc(C(F)(F)F)cc3)cccc2c1 [Compound 272, (S)—N-(pent-3-yn-2-yl)-5-(4-(trifluoromethyl)phenyl)-2-naphthamide] | < 100 |
| CC#C[C@@H](C)NC(=O)c1ccc2c(-c3ccc(C(F)(F)F)cc3)cccc2c1 [Compound 273, (R)—N-(pent-3-yn-2-yl)-5-(4-(trifluoromethyl)phenyl)-2-naphthamide] | < 100 |
| C#C[C@H](C)NC(=O)c1ccc2c(-c3ccc(C(F)(F)F)cc3)cccc2c1 [Compound 274, (S)—N-(but-3-yn-2-yl)-5-(4-(trifluoromethyl)phenyl)-2-naphthamide] | < 100 |
| C#C[C@@H](C)NC(=O)c1ccc2c(-c3ccc(C(F)(F)F)cc3)cccc2c1 [Compound 275, (R)—N-(but-3-yn-2-yl)-5-(4-(trifluoromethyl)phenyl)-2-naphthamide] | < 100 |
| C[C@H](NC(=O)c1ccc2c(-c3ccc(C(F)(F)F)cc3)cccc2c1)c1c[nH]cn1 [Compound 276, (S)—N-(1-(1H-imidazol-4-yl)ethyl)-5-(4-(trifluoromethyl)phenyl)-2-naphthamide] | 100 to 1000 |
| C[C@@H](NC(=O)c1ccc2c(-c3ccc(C(F)(F)F)cc3)cccc2c1)c1c[nH]cn1 [Compound 277, (R)—N-(1-(1H-imidazol-4-yl)ethyl)-5-(4-(trifluoromethyl)phenyl)-2-naphthamide] | 100 to 1000 |
| C[C@H](NC(=O)c1ccc2c(-c3ccc(C(F)(F)F)cc3)cccc2c1)c1nnn(C)n1 [Compound 278, (S)—N-(1-(2-methyl-2H-tetrazol-5-yl)ethyl)-5-(4-(trifluoromethyl)phenyl)-2-naphthamide] | 100 to 1000 |
| C[C@@H](NC(=O)c1ccc2c(-c3ccc(C(F)(F)F)cc3)cccc2c1)c1nnn(C)n1 [Compound 279, (R)—N-(1-(2-methyl-2H-tetrazol-5-yl)ethyl)-5-(4-(trifluoromethyl)phenyl)-2-naphthamide] | < 100 |
| C[C@H](NC(=O)c1ccc2c(-c3ccc(C(F)(F)F)cc3)cccc2c1)c1nnnn1C [Compound 280, (S)—N-(1-(1-methyl-1H-tetrazol-5-yl)ethyl)-5-(4-(trifluoromethyl)phenyl)-2-naphthamide] | 1000 to 3000 |
| C[C@@H](NC(=O)c1ccc2c(-c3ccc(C(F)(F)F)cc3)cccc2c1)c1nnnn1C [Compound 281, (R)—N-(1-(1-methyl-1H-tetrazol-5-yl)ethyl)-5-(4-(trifluoromethyl)phenyl)-2-naphthamide] | 100 to 1000 |
| C[C@H](NC(=O)c1ccc2c(-c3ccc(C(F)(F)F)cc3)cccc2c1)c1cnccn1 [Compound 282, (S)—N-(1-(pyrazin-2-yl)ethyl)-5-(4-(trifluoromethyl)phenyl)-2-naphthamide] | 100 to 1000 |
| C[C@@H](NC(=O)c1ccc2c(-c3ccc(C(F)(F)F)cc3)cccc2c1)c1cnccn1 [Compound 283, (R)—N-(1-(pyrazin-2-yl)ethyl)-5-(4-(trifluoromethyl)phenyl)-2-naphthamide] | < 100 |
| C[C@@H](NC(=O)c1ccc2c(-c3ccc(C(F)(F)F)cc3)cccc2c1)c1cccc(N(C)C)n1 [Compound 286, (R)—N-(1-(6-(dimethylamino)pyridin-2-yl)ethyl)-5-(4-(trifluoromethyl)phenyl)-2-naphthamide] | < 100 |
| C[C@H](NC(=O)c1ccc2c(-c3ccc(C(F)(F)F)cc3)cccc2c1)c1cccc(N(C)C)n1 [Compound 287, (S)—N-(1-(6-(dimethylamino)pyridin-2-yl)ethyl)-5-(4-(trifluoromethyl)phenyl)-2-naphthamide] | 100 to 1000 |
| O=C(NC1(c2ccccc2)COC1)c1ccc2c(-c3ccc(C(F)(F)F)cc3)cccc2c1 [Compound 288, N-(3-phenyloxetan-3-yl)-5-(4-(trifluoromethyl)phenyl)-2-naphthamide] | < 100 |
| C[C@H](NC(=O)c1ccc2c(-c3ccc(C(F)(F)F)cc3)cccc2c1)C1CC1 [Compound 289, (S)—N-(1-cyclopropylethyl)-5-(4-(trifluoromethyl)phenyl)-2-naphthamide] | < 100 |
| C[C@@H](NC(=O)c1ccc2c(-c3ccc(C(F)(F)F)cc3)cccc2c1)C1CC1 [Compound 290, (R)—N-(1-cyclopropylethyl)-5-(4-(trifluoromethyl)phenyl)-2-naphthamide] | < 100 |
| COc1cc(-c2ccc(C(F)(F)F)cc2)c2ccc(C(=O)NC(CO)c3ccccn3)cc2c1 (stereo not drawn) [Compound 291, N-(2-Hydroxy-1-(pyridin-2-yl)ethyl)-7-methoxy-5-(4-(trifluoromethyl)phenyl)-2-naphthamide] | < 100 |
| COc1cc(-c2ccc(C(F)(F)F)cc2)c2ccc(C(=O)N[C@@H](C)c3ccccn3)cc2c1 [Compound 292, (S)-7-Methoxy-N-(1-(pyridin-2-yl)ethyl)-5-(4-(trifluoromethyl)phenyl)-2-naphthamide] | < 100 |
